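Values below derive from 48-hour exposures of cells grown in 96-well plates, with endpoints linearly interpolated between the two concentrations bracketing the appropriate inhibition level. GI50 = concentration required for 50% inhibition of growth.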 Active and inactive are the calls of the source. Rule as the data show it: active = GI50 up to about 1.1 µM and inactive = higher.
Legend:
Assay in all cases: NCI-60 cell line screen, 48 h
786-0 = tested on: 786-0
A498 = tested on: A498
ACHN = tested on: ACHN
DLD-1 = tested on: DLD-1
EKVX = tested on: EKVX
HCT-116 = tested on: HCT-116
M19-MEL = tested on: M19-MEL
MOLT-4 = tested on: MOLT-4
Malme-3M = tested on: Malme-3M
NCI-H460 = tested on: NCI-H460
OVCAR-4 = tested on: OVCAR-4
OVCAR-5 = tested on: OVCAR-5
OVCAR-8 = tested on: OVCAR-8
RXF 393 = tested on: RXF 393
SF-295 = tested on: SF-295
SK-MEL-5 = tested on: SK-MEL-5
SNB-75 = tested on: SNB-75
UACC-257 = tested on: UACC-257
HT-29 = tested on: HT-29
HOP-92 = tested on: HOP-92

Measured: GI50

O=C1CC2CCCCC2=C1O (configuration not stated)
inactive: 786-0 > 100 µM | A498 > 100 µM | ACHN > 100 µM | DLD-1 > 100 µM | EKVX > 100 µM | HCT-116 > 100 µM | M19-MEL > 100 µM | MOLT-4 > 100 µM | Malme-3M > 100 µM | NCI-H460 > 100 µM | OVCAR-4 > 100 µM | OVCAR-5 > 100 µM | OVCAR-8 > 100 µM | RXF 393 > 100 µM | SF-295 > 100 µM | SK-MEL-5 > 100 µM | SNB-75 > 100 µM | UACC-257 > 100 µM

Cc1cc2c(cc1C)[n+]([O-])c(C(=O)/C=C/c1ccccc1Cl)c(C)[n+]2[O-]
inactive: 786-0 16 µM | A498 36.6 µM | ACHN 24.5 µM | DLD-1 19.5 µM | EKVX 49.2 µM | HT-29 34.8 µM | M19-MEL 36 µM | MOLT-4 39.5 µM | Malme-3M 31.8 µM | NCI-H460 26.2 µM | OVCAR-4 50.7 µM | OVCAR-5 34.4 µM | OVCAR-8 26.1 µM | SF-295 32.1 µM | SK-MEL-5 24.4 µM | SNB-75 19.2 µM | UACC-257 23 µM

Cc1ccc(S(=O)(=O)OC2CSSCC2OS(=O)(=O)c2ccc(C)cc2)cc1 (configuration not stated)
inactive: 786-0 12.6 µM | ACHN 15.3 µM | DLD-1 11 µM | EKVX 29.8 µM | HCT-116 13.3 µM | HOP-92 11.4 µM | HT-29 9.68 µM | M19-MEL 13.4 µM | MOLT-4 2.59 µM | Malme-3M 19.2 µM | NCI-H460 17.7 µM | OVCAR-4 11.2 µM | OVCAR-5 23.4 µM | OVCAR-8 13.3 µM | RXF 393 20.9 µM | SF-295 16.2 µM | SK-MEL-5 15.7 µM | SNB-75 12.8 µM | UACC-257 10.2 µM

COc1cc(C2C(Cl)C(=O)N2n2cnc3ccccc3c2=O)cc(OC)c1OC (configuration not stated)
inactive: 786-0 > 100 µM | ACHN > 100 µM | DLD-1 > 100 µM | EKVX 92 µM | HCT-116 > 100 µM | HT-29 > 100 µM | M19-MEL > 100 µM | MOLT-4 59.2 µM | Malme-3M > 100 µM | NCI-H460 > 100 µM | OVCAR-4 82.2 µM | OVCAR-5 > 100 µM | OVCAR-8 > 100 µM | RXF 393 > 100 µM | SF-295 > 100 µM | SK-MEL-5 > 100 µM | SNB-75 65.5 µM | UACC-257 55.8 µM

O=S1(=O)OCCOS(=O)(=O)C1Br
inactive: 786-0 > 100 µM | A498 > 100 µM | DLD-1 > 100 µM | HCT-116 > 100 µM | HOP-92 > 100 µM | HT-29 > 100 µM | M19-MEL > 100 µM | MOLT-4 > 100 µM | Malme-3M > 100 µM | OVCAR-4 > 100 µM | OVCAR-8 > 100 µM | SF-295 86.5 µM | SK-MEL-5 > 100 µM | SNB-75 > 100 µM | UACC-257 > 100 µM

CC(=O)Nc1ccc(-c2nnc(SCC(=O)Nc3cccc([N+](=O)[O-])c3)o2)cc1
inactive: 786-0 17.6 µM | ACHN 15.4 µM | DLD-1 12.8 µM | HCT-116 14 µM | HOP-92 17.1 µM | HT-29 16.1 µM | M19-MEL 15.1 µM | MOLT-4 4.39 µM | Malme-3M 11.6 µM | NCI-H460 14.5 µM | OVCAR-4 11.6 µM | OVCAR-5 23.9 µM | OVCAR-8 16.2 µM | RXF 393 12.2 µM | SF-295 16.8 µM | SK-MEL-5 14 µM | SNB-75 17.8 µM | UACC-257 17.3 µM

COC(=O)CCC(=O)Nc1ccc(Cl)cc1C
inactive: 786-0 > 50.8 µM | ACHN > 37.2 µM | DLD-1 > 100 µM | EKVX > 55.2 µM | HCT-116 > 100 µM | HOP-92 > 60.8 µM | HT-29 > 100 µM | M19-MEL > 100 µM | MOLT-4 1.8 µM | Malme-3M > 100 µM | NCI-H460 > 100 µM | OVCAR-4 > 75.7 µM | OVCAR-5 > 100 µM | OVCAR-8 > 100 µM | RXF 393 > 63 µM | SF-295 > 100 µM | SK-MEL-5 > 92.9 µM | SNB-75 > 74.5 µM | UACC-257 > 67.1 µM

OC12c3ccccc3C1CCCCCCCCCC21OCCCO1 (configuration not stated)
inactive: DLD-1 > 100 µM | EKVX > 100 µM | HCT-116 4.06 µM | HT-29 > 100 µM | M19-MEL > 100 µM | Malme-3M > 100 µM | OVCAR-4 > 100 µM | OVCAR-5 > 100 µM | OVCAR-8 > 100 µM | SF-295 > 100 µM | SK-MEL-5 > 100 µM | SNB-75 > 100 µM | UACC-257 > 100 µM

CN1C(=O)CCC1(O)C1C=CC=CC1 (configuration not stated)
inactive: 786-0 > 100 µM | ACHN > 100 µM | DLD-1 > 100 µM | HCT-116 > 100 µM | HT-29 > 100 µM | M19-MEL > 100 µM | MOLT-4 > 100 µM | Malme-3M > 100 µM | NCI-H460 > 100 µM | OVCAR-4 > 100 µM | OVCAR-5 > 100 µM | OVCAR-8 > 100 µM | RXF 393 > 100 µM | SF-295 > 100 µM | SK-MEL-5 > 100 µM | SNB-75 > 100 µM | UACC-257 > 100 µM

C/C=C/CC(C)[C@@H](O)[C@H](NC)C(=O)O (some centres not stated)
inactive: 786-0 > 100 µM | ACHN > 100 µM | DLD-1 > 100 µM | EKVX > 100 µM | HOP-92 > 100 µM | HT-29 > 100 µM | M19-MEL > 100 µM | MOLT-4 > 100 µM | Malme-3M > 100 µM | NCI-H460 > 100 µM | OVCAR-4 > 100 µM | OVCAR-5 > 100 µM | OVCAR-8 > 100 µM | RXF 393 > 100 µM | SF-295 > 100 µM | SK-MEL-5 > 100 µM | SNB-75 > 100 µM | UACC-257 > 100 µM

N=C(N)SCCc1cn2ccccc2n1
inactive: 786-0 > 100 µM | ACHN > 100 µM | DLD-1 7.03 µM | EKVX > 100 µM | HCT-116 > 100 µM | HT-29 > 100 µM | M19-MEL > 100 µM | MOLT-4 > 100 µM | Malme-3M > 100 µM | NCI-H460 > 100 µM | OVCAR-4 > 100 µM | OVCAR-5 > 100 µM | OVCAR-8 > 100 µM | SF-295 > 100 µM | SK-MEL-5 6.92 µM | SNB-75 > 100 µM | UACC-257 > 100 µM

C#CC1(O)CC(c2ccccc2)N(C)C(c2ccccc2)C1 (configuration not stated)
inactive: 786-0 > 100 µM | A498 > 100 µM | ACHN > 100 µM | EKVX > 100 µM | HCT-116 18.4 µM | HOP-92 > 100 µM | HT-29 > 100 µM | M19-MEL > 100 µM | MOLT-4 > 100 µM | Malme-3M > 100 µM | NCI-H460 > 100 µM | OVCAR-4 > 100 µM | OVCAR-5 > 100 µM | OVCAR-8 > 100 µM | RXF 393 > 100 µM | SF-295 > 100 µM | SK-MEL-5 > 100 µM | SNB-75 > 100 µM | UACC-257 > 100 µM

Cc1cc(C)c2c(c1)CSCc1cc(C)cc(C)c1-2
inactive: 786-0 32.5 µM | A498 28.1 µM | ACHN 35.4 µM | DLD-1 33.3 µM | EKVX 24.2 µM | HCT-116 22 µM | HT-29 19.3 µM | M19-MEL 25.1 µM | MOLT-4 21.1 µM | Malme-3M 18.1 µM | NCI-H460 24.2 µM | OVCAR-4 39.2 µM | OVCAR-5 29.9 µM | OVCAR-8 33 µM | RXF 393 39.4 µM | SF-295 25.6 µM | SK-MEL-5 21.6 µM | SNB-75 37.3 µM | UACC-257 24.8 µM

O=C(N/C(=C\c1ccc([N+](=O)[O-])cc1)c1nc2ccccc2[nH]1)c1ccccc1
inactive: 786-0 > 100 µM | A498 > 100 µM | ACHN > 100 µM | DLD-1 > 100 µM | EKVX > 100 µM | HCT-116 72.4 µM | HOP-92 45.6 µM | HT-29 95.7 µM | M19-MEL > 100 µM | MOLT-4 > 100 µM | Malme-3M > 100 µM | NCI-H460 > 100 µM | OVCAR-4 > 100 µM | OVCAR-5 > 100 µM | OVCAR-8 > 100 µM | RXF 393 > 100 µM | SF-295 > 100 µM | SK-MEL-5 86.9 µM | UACC-257 > 100 µM

CCCCNc1nc(O)c2[nH]cnc2n1
inactive: 786-0 > 100 µM | A498 > 100 µM | ACHN > 100 µM | EKVX > 100 µM | HCT-116 > 100 µM | HOP-92 > 100 µM | HT-29 > 100 µM | MOLT-4 > 100 µM | Malme-3M > 100 µM | NCI-H460 > 100 µM | OVCAR-4 > 100 µM | OVCAR-5 > 100 µM | OVCAR-8 > 100 µM | RXF 393 > 100 µM | SF-295 > 100 µM | SK-MEL-5 > 100 µM | SNB-75 > 100 µM | UACC-257 > 100 µM

COc1cc2oc(-c3ccc(O)cc3O)c(CC=C(C)C)c(=O)c2c(O)c1/C=C/C(C)C [ARTOCARPIN]
inactive: 786-0 2.14 µM | A498 2.21 µM | ACHN 2.8 µM | EKVX 4.2 µM | HCT-116 2.1 µM | HOP-92 3.08 µM | HT-29 2.51 µM | MOLT-4 2.33 µM | Malme-3M 6.4 µM | NCI-H460 3.21 µM | OVCAR-4 2.61 µM | OVCAR-5 6.64 µM | OVCAR-8 1.75 µM | RXF 393 2.12 µM | SF-295 3.48 µM | SK-MEL-5 1.69 µM | SNB-75 3.04 µM | UACC-257 6.31 µM

— ChEMBL document CHEMBL1201862, “PubChem BioAssay data set” (2004)
